{
  "source": "patent US8648116B2",
  "about": "“Derivatives of N-(arylamino) sulfonamides including polymorphs as inhibitors of MEK as well as compositions, methods of use and methods for preparing the same” (Ardea Biosciences, Inc., priority 2005, dated 2014)",
  "key": {"A375 cells": {"test_system": "A375 cells", "experiment": "Anchorage-independent growth inhibition (MTS, 7 days)", "assay_type": "cell-based, human"}, "[1]": {"test_system": "gastric carcinoma Hs746t cells", "experiment": "Cell proliferation assay (CellTiterGlo, 48 hours)", "assay_type": "cell-based, human", "conditions": "48 hours treatment", "method": "Human gastric carcinoma Hs746t cells were obtained from ATCC (Manassas, Va.). […] For cell proliferation experiments, cells were plated in white 96-well plates with clear bases at 3000 cells/100 μl/well."}, "rat hepatocytes": {"test_system": "rat hepatocytes", "experiment": "Primary hepatocyte toxicity (AK release, ATP, 48 hr)", "assay_type": "cell-based", "conditions": "rat hepatocytes", "method": "Cryopreserved rat hepatocytes were obtained from CellzDirect (Austin, Tex.) and plated on collagen coated 96-well plates according to manufacturer's instructions. Drug was added 4 hr after plating (final DMSO concentration 0.5%).\n(§1) After 48 hr, supernatant AK levels were determined using Toxilight, and cellular ATP levels were determined using CellTiterGlo. Full kill values were determined using 15 μM VRX-14686."}, "[2]": {"experiment": "Plasma concentrations in mice (Example 94F)", "assay_type": "in vivo, nu/nu mice", "conditions": "mouse efficacy model, typical range"}, "human hepatocytes": {"test_system": "human hepatocytes", "experiment": "Primary hepatocyte toxicity (AK release, ATP, 48 hr)", "assay_type": "cell-based", "method": "Plated human hepatocytes were obtained from CellzDirect and processed according to manufacturer's instructions.\nas §1"}, "[3]": {"test_system": "human A375 melanoma xenografts"}, "Colo205 cells": {"test_system": "Colo205 cells", "experiment": "Anchorage-independent growth inhibition (MTS, 7 days)", "assay_type": "cell-based, human", "method": "Wells of an “ultra low binding” plate (Corning, Acton Mass.) were filled with 60 μl of a 0.15% agarose solution in complete RPMI. Then, 60 μl complete RPMI containing 9000 Colo205 cells in 0.15% agarose was added per well. After 24 hr, 60 μl of a 3× drug solution in agarose free complete RPMI was added. After 7 days, 36 μl 6×MTS reagent (CellTiter 96 Aqueous, Promega, Madison, Wis.) was added per well. After 2 hr at 37° C., absorbance at 490 nm was determined on the M5 plate reader (Molecular Devices, Sunnyvale, Calif.).\nViability was determined by MTS assay."}, "[4]": {"conditions": "human, in vivo"}, "[5]": {"test_system": "gastric adenocarcinoma AGS cells", "experiment": "Cell proliferation assay (CellTiterGlo, 3 days and 6 days)", "assay_type": "cell-based, human", "conditions": "3 days and 6 days exposure", "method": "Human gastric adenocarcinoma AGS cells were obtained from ATCC (Manassas, Va.). […] For cell proliferation experiments, cells were plated in white 96-well plates with clear bases at 3000 cells/100 μl/well. […] The ATP level for each dose was determined in triplicate using independent wells."}},
  "note": "Where two headings read alike, the source gives them in different places.",
  "data": [
    {"smiles": "COc1cc(F)c(F)c(Nc2ccc(I)cc2F)c1NS(=O)(=O)C1(C[C@H](O)CO)CC1", "values": [
      {"measurement": "GI50", "setting": "A375 cells; A375, anchorage independent, read-out: Mean GI50", "value": 0.084, "unit": "µM"},
      {"measurement": "GI50", "setting": "A375 cells; A375 cells, read-out: GI50, anchorage independent growth (FIG. 12B)", "value": 0.022, "unit": "µM"},
      {"measurement": "proliferation of Hs746t cells", "setting": "[1]", "value": "inhibits the proliferation"},
      {"measurement": "cytotoxicity", "setting": "rat hepatocytes", "value": "little cytotoxicity"},
      {"measurement": "half-life", "setting": "[2]", "value": "2 to 3", "unit": "h"},
      {"measurement": "survival", "setting": "human hepatocytes; freshly plated primary human hepatocytes, 30 μM, 48 hr", "value": 81, "unit": "%"},
      {"measurement": "cytotoxicity", "setting": "human hepatocytes; primary normal human hepatocytes", "value": "little cytotoxicity"},
      {"measurement": "Median TTE", "setting": "[3]; Group 3, 50 mg/kg po qd×14", "value": 27.5, "unit": "days"},
      {"measurement": "PR", "setting": "[3]; Group 3, 50 mg/kg po qd×14", "value": "A single animal"},
      {"measurement": "TGD", "setting": "[3]; Group 3, 50 mg/kg po qd×14", "value": 21, "unit": "%"},
      {"measurement": "CR", "setting": "[3]; Group 4, 25 mg/kg po bid×14", "value": "5/9"},
      {"measurement": "Median TTE", "setting": "[3]; Group 4, 25 mg/kg po bid×14", "value": 59.9, "unit": "days"},
      {"measurement": "PR", "setting": "[3]; Group 4, 25 mg/kg po bid×14", "value": "4/9"},
      {"measurement": "TFS", "setting": "[3]; Group 4, 25 mg/kg po bid×14", "value": "4/9"},
      {"measurement": "TGD", "setting": "[3]; Group 4, 25 mg/kg po bid×14, maximum possible", "value": 163, "unit": "%"},
      {"measurement": "Median TTE", "setting": "[3]; Group 5, 25 mg/kg po qd×14", "value": 25.6, "unit": "days"},
      {"measurement": "tumor regressions", "setting": "[3]; Group 5, 25 mg/kg po qd×14", "value": "no tumor regressions"},
      {"measurement": "TGD", "setting": "[3]; Group 5, 25 mg/kg po qd×14, non-significant", "value": 12, "unit": "%"},
      {"measurement": "Median TTE", "setting": "[3]; Group 6, 12.5 mg/kg po bid×14", "value": 27.5, "unit": "days"},
      {"measurement": "PR", "setting": "[3]; Group 6, 12.5 mg/kg po bid×14", "value": "a single PR response"},
      {"measurement": "TGD", "setting": "[3]; Group 6, 12.5 mg/kg po bid×14", "value": 21, "unit": "%"},
      {"measurement": "GI50", "setting": "Colo205 cells; Colo205, anchorage independent, read-out: Mean GI50", "value": 0.04, "unit": "µM"},
      {"measurement": "GI50", "setting": "Colo205 cells; human colorectal carcinoma Colo205 cells, read-out: GI50, anchorage independent growth (FIG. 12A)", "value": 0.011, "unit": "µM"},
      {"measurement": "half-lives", "setting": "[4]", "value": "13 to 15", "unit": "h"},
      {"measurement": "proliferation of AGS cell line", "setting": "[5]", "value": "inhibits the proliferation"}
    ]}
  ]
}
